# Data taken from PMC7764665, “Food (Matrix) Effects on Bioaccessibility and Intestinal Permeability of Major Olive Antioxidants” (Foods, 2020).
# Where “and” joins values, the source holds several entries; their conditions need not be identical. Equal entries are not always repeated.
# Tests used:
# [1] = Standardized static in vitro simulation of gastrointestinal digestion of OPE (bioaccessibility), alone or co-digested with food; assay type: in vitro ADME; settings: for bioaccessible amount after gastrointestinal digestion / amount in OPE before gastrointestinal digestion: OPE; for bioaccessible amount after gastrointestinal digestion: after simulated gastrointestinal digestion; for amount in OPE before gastrointestinal digestion: before digestion (start of the printed increase); for effect of standardized food model (SFM) on bioaccessibility: digestion with SFM compared to other applied methods
# Procedure: Total polyphenols (total reductive capacity) of analyzed samples was assessed by Folin–Ciocalteu method that relies on the transfer of electrons in alkaline medium from phenolic (or other reductive) compounds to phosphomolybdic/phosphotungstic acid complexes, which are determined spectroscopically at 765 nm. Experiments were conducted according to the protocol described by Ainsworth and co-workers. Moreover, 20 µL of adequately diluted sample/standard/solvent (blank) were added in triplicate to 96-well plate (Thermo Fisher Scientific 130188, Rochester, NY, USA) and incubated at 37 °C with 50 µL of Folin Ciocalteu reagent (10% (v/v)) for 5 min. The 160 µL of Na2CO3 (700 mM) was added into each well, shaken, and incubated at 37 °C for 30 min. Absorbance was read at 765 nm and results were expressed as gallic acid equivalents (GAE). HTS and TS were identified and quantified by HPLC system (Waters Alliance 2695, Milford, MA, USA) coupled with a 2475 Multi λ detector (FLD) with Xenon lamp, according to slightly modified method of Tsarbopoulos and co-workers. Samples were prepared by filtration through 0.45 μm polyethersulfone (PES) syringe filters (Macherey–Nagel, Düren, Germany). Chromatographic separation was conducted by injecting 20 μL of sample on a reversed phase column (250 × 4.6 mm, 5 μm) (Agilent Zorbax Eclipse Plus C18, Santa Clara, CA, USA). Mobile phases were 0.05 M sodium acetate buffer pH 5 and acetonitrile with the flow rate of 1 mL/min. Elution was conducted over 25 min at 25 °C. Identification was performed with FLD set at the excitation wavelength of 280 nm, and emission wavelength of 316 nm. Polyphenols were identified by comparing the retention times of the eluting peaks with those of the standards. Peaks were quantified by using the Empower2 software (Waters, Milford, MA, USA) and compared to external standard calibration. Standard stock solutions were prepared by dissolving reference compounds in DMSO. In vitro simulation of gastrointestinal digestion and the assessment of bioaccessibility of hydroxytyrosol and tyrosol from OPE was conducted by standardized static in vitro digestion method suitable for food. Three-phase digestion process was applied consisting of short salivary phase, simulation of gastric digestion and simulation of duodenal digestion. Briefly, 200 mg of OPE was used alone or mixed with 600 mg of food matrix (Table S4) in 50 mL Falcon tube. The 875 µL of SSF, 125 µL of salivary α amylase solution, 6.25 µL of CaCl2 (0.3 mol/L), and 243.8 µL of water was added, and the mixture incubated at 37 °C for 2 min with constant shaking. The 2.5 mL of reaction mixture were transferred to another Falcon tube and mixed with 1.875 mL of SGF, 1.25 µL of CaCl2 (0.3 mol/L), and 50 µL of HCl (1 mol/L). The pH of the mixture was adjusted to 3, and total volume was adjusted to 5 mL with water. The content of the Falcon tube was vortexed and incubated for 2 h at 37 °C with constant shaking. Every 15 min pH of the mixture was checked and adjusted to 3 if necessary. At the end of simulation of the gastric digestion step, 5 mL of aliquot were transferred to another 50 mL Falcon tube for the simulation of intestinal digestion. The 2.75 mL of SIF, 1.25 mL of pancreatin solution, 0.625 mL of bile salt (160 mmol/L), 10 µL of CaCl2 (0.3 mol/L), and 37.5 µL of NaOH (1 mol/L) were added. The pH was checked and adjusted to 7. Total volume of reaction mixture was adjusted to […], mixtures were vortexed and incubated for 2 h at 37 °C with constant shaking. Every 15 min, pH of the mixture was checked and adjusted to 7 if necessary. After digestion, simulation samples were cooled at −20 °C for 10 min and centrifuged (Heraeus Biofuge Stratos, Hanau, Germany) for 20 min at 4 °C and 4100 rpm. For HPLC analysis of hydroxytyrosol and tyrosol, obtained supernatants were additionally filtered through 0.45 µm polyether sulfone (PES) syringe filters. […]
# [2] = as above; assay type: in vitro ADME; settings: fed vs fasted state biorelevant media (FeSSGF/FeSSIF vs FaSSGF/FaSSIF)
# [3] = source not given; cited from earlier work
# [4] = design: method as in PMID 18209271; settings: after virgin olive oil ingestion; cited from earlier work
# [5] = design: method as in PMID 11435519; settings: rat model, lipid-rich matrix (olive oil); cited from earlier work
# [6] = design: method as in PMID 29663812; settings: co-digestion with the test meal; cited from earlier work
# Caco-2 Cells = tested on: Caco-2 Cells; design: method as in PMID 29663812; settings: co-digestion with the test meal; cited from earlier work
# Caco-2 cell monolayer = assay: Transepithelial transport of HTS and TS in Caco-2 monolayers; settings: 2 h, compared to MIX; for transepithelial permeability in presence of glucose: 40 µg/mL HTS and TS with 10 mM glucose; for transepithelial permeability in presence of cellulose: 40 µg/mL HTS and TS with 1% cellulose
# [7] = OPE co-digested with apple (peeled, no skin), relative to OPE without food
# [8] = OPE co-digested with banana, relative to OPE without food
# [9] = OPE co-digested with breakfast cereals, relative to OPE without food
# [10] = OPE co-digested with canned tuna, relative to OPE without food
# [11] = OPE co-digested with cellulose, relative to OPE without food
# [12] = OPE co-digested with corn starch, relative to OPE without food
# [13] = OPE co-digested with fresh low fat cheese, relative to OPE without food
# [14] = OPE co-digested with honey, relative to OPE without food
# [15] = OPE co-digested with milk formula, relative to OPE without food
# [16] = OPE co-digested with milk, relative to OPE without food
# [17] = OPE co-digested with potato (boiled), relative to OPE without food
# [18] = OPE co-digested with silverbeat (blanched), relative to OPE without food
# [19] = OPE co-digested with souce bolognese, relative to OPE without food
# [20] = OPE co-digested with sour cream, relative to OPE without food
# [21] = OPE co-digested with soy flakes, relative to OPE without food
# [22] = OPE co-digested with whole-grain bread, relative to OPE without food
# [23] = OPE co-digested with yoghurt, relative to OPE without food
# [24] = OPE digested without food (reference)
Structure (SMILES),"relative bioaccessibility [1, 7] [%]","relative bioaccessibility [1, 8] [%]","relative bioaccessibility [1, 9] [%]","relative bioaccessibility [1, 10] [%]","relative bioaccessibility [1, 11] [%]","relative bioaccessibility [1, 12]","relative bioaccessibility [1, 13] [%]","relative bioaccessibility [1, 14]","relative bioaccessibility [1, 15] [%]","relative bioaccessibility [1, 16] [%]","relative bioaccessibility [1, 17] [%]","relative bioaccessibility [1, 18] [%]","relative bioaccessibility [1, 19] [%]","relative bioaccessibility [1, 20] [%]","relative bioaccessibility [1, 21] [%]","relative bioaccessibility [1, 22] [%]","relative bioaccessibility [1, 23] [%]","relative bioaccessibility [1, 24] [%]",bioaccessible amount after gastrointestinal digestion [1] [mg/100g],amount in OPE before gastrointestinal digestion [1] [mg/100g],also measured
"OCCc1ccc(O)c(O)c1 [HTS, 3-hydroxytyrosol]",54.8 ± 0.72,65.8 ± 5.05,76.0 ± 2.30,98.3 ± 4.92,108.2 ± 2.24,94.9% and 94.9 ± 2.19%,95.5 ± 8.16,89.5% and 89.5 ± 7.26%,95.9 ± 0.96,98.6 ± 3.11,92.8 ± 5.88,69.3 ± 0.79,84.2 ± 4.61,102.3 ± 2.18,69.8 ± 1.06,57.4 ± 0.97,92.5 ± 0.82,100.0 ± 2.86,109.3,78.4,"relative bioaccessibility ([1]; OPE co-digested with pectin, relative to OPE without food): 93.2% and 93.2 ± 3.04%; effect of standardized food model (SFM) on bioaccessibility [1]: no effect; influence of food-induced changes of pH and digestion fluid composition on bioaccessibility [2]: do not influence; water solubility [3]: 17.4 mg/mL; time of peak concentration in plasma [4]: around 1 h; time of peak in urine [4]: 0 to 2 h; greater absorption from olive oil compared to aqueous solution [5]: 25%; change of bioaccessibility by presence of foods [6]: −20%; change of intestinal permeability by presence of foods (Caco-2 Cells): −10%; transepithelial permeability in presence of glucose (Caco-2 cell monolayer): significantly improved; transepithelial permeability in presence of cellulose (Caco-2 cell monolayer): did not result in increased permeability; transepithelial permeability in presence of inulin (Caco-2 cell monolayer; 40 µg/mL HTS and TS with 1% inulin): significant reduction"
"OCCc1ccc(O)cc1 [TS, tyrosol]",67.2 ± 0.55,104.5 ± 2.15,79.3 ± 8.70,98.5 ± 1.12,87.4,88.7% and 88.1 ± 1.66%,106.4 ± 4.35,97.8% and 97.8 ± 0.91%,81.3 ± 3.95,94.6 ± 1.63,92.4 ± 1.64,89.9 ± 4.59,92.4 ± 0.46,97.4 ± 3.34,93.0 ± 1.93,73.0 ± 0.66,73.8 ± 1.42,99.9 ± 6.75,27.4,20.7,effect of standardized food model (SFM) on bioaccessibility [1]: no effect; influence of food-induced changes of pH and digestion fluid composition on bioaccessibility [2]: do not influence; water solubility [3]: 25.3 mg/mL; time of peak concentration in plasma [4]: around 1 h; time of peak in urine [4]: 0 to 2 h; greater absorption from olive oil compared to aqueous solution [5]: 25%; transepithelial permeability in presence of glucose (Caco-2 cell monolayer): significantly improved; transepithelial permeability in presence of cellulose (Caco-2 cell monolayer): did not result in increased permeability
